Measurements reported in US4335138A, “Novel carbamates, their preparation, and pharmaceutical formulations containing these compounds” (BASF Aktiengesellschaft, priority 1979, dated 1982).

How the values were obtained:
rats [1] = experiment: Hypnotic action on intraperitoneal administration (period of absence of the righting reflex, duration of sleep); assay type: in vivo, female Sprague-Dawley rats; conditions: for ED (60 min sleep): Rattus norvegicus, 1 h, dose which causes a 60 minute period of sleep, regression analysis
Method: To investigate the hypnotic action, these substances are administered intraperitoneally to groups of 4-8 female Sprague-Dawley rats each weighing 145-200 g. The period of absence of the righting reflex (ie. the duration of sleep) served as a criterion of the hypnotic action.
Linear relationships exist between the logarithms of the administered doses (mg/kg) and the logarithms of the period of sleep (min), from which relationships the dose which causes a 60 minute period of sleep is calculated, as the ED 60 min, by regression analysis.

in vivo = conditions: rat, ip; for selectivity ratio: Therapeutic range
Method: (§1) The acute toxicity is determined on groups of 10 rats of the same strain as above, again for intraperitoneal administration.
(§2) The comparison substance used is the well known hypnotic Ethinamate (1-ethynyl-cyclohexyl carbamate).

[2] = German Laid-Open Application DOS No. 2,346,305; cited from earlier work
rats [3] = experiment: in vivo; conditions: rat, ip, 681 mg/kg
Method: as §1, §2

In the case of `CCCNC(=O)OC[C@@]1(C(C)=O)C[C@@H]2C=C[C@H]1C2` (relative stereo) [Example 4, exo-2-(N-n-propylcarbamyloxymethyl)-norborn-5-en-2-yl methyl ketone], the ED (60 min sleep) (rats [1]; ip, intraperitoneal, rats) is reported as 21.5 mg/kg, the “R.A. (relative activity)” value (rats [1]; rat, in vivo, ip) is reported as 3.22 and the LD50 at 6 h (in vivo) is reported as 392 mg/kg. The selectivity ratio (in vivo) was 18.2.
With `CC(=O)[C@]1(COC(=O)NC(C)C)C[C@@H]2C=C[C@H]1C2` (relative stereo) [Example 7, exo-2-(N-isopropylcarbamyloxymethyl)-norborn-5-en-2-yl methyl ketone] the ED (60 min sleep) (rats [1]; ip, intraperitoneal, rats) was 20.7 mg/kg, the “R.A. (relative activity)” value (rats [1]; rat, in vivo, ip) was 3.35 and the LD50 at 6 h (in vivo) was 137 mg/kg. For the same compound, the selectivity ratio (in vivo) was 6.6.
In the case of `CC(=O)[C@]1(COC(=O)NC2CCCC2)C[C@@H]2C=C[C@H]1C2` (relative stereo) [Example 15, exo-2-(N-cyclopentylcarbamyloxymethyl)-norborn-5-en-2-yl methyl ketone], the ED (60 min sleep) (rats [1]; ip, intraperitoneal, rats) is reported as 46.4 mg/kg, the “R.A. (relative activity)” value (rats [1]; rat, in vivo, ip) is reported as 1.49 and the LD50 at 6 h (in vivo) is reported as 247 mg/kg. The selectivity ratio (in vivo) was 5.3.
For `CC(=O)[C@]1(COC(=O)NC(C)C)C[C@@H]2CC[C@H]1C2` (relative stereo) [Example 36, exo-2-(N-isopropylcarbamyloxymethyl)-norborn-2-yl methyl ketone], the ED (60 min sleep) (rats [1]; ip, intraperitoneal, rats) was 37.6 mg/kg, the “R.A. (relative activity)” value (rats [1]; rat, in vivo, ip) was 1.84 and the LD50 at 6 h (in vivo) was 464 mg/kg. For the same compound, the selectivity ratio (in vivo) was 12.3.
For `CC(=O)[C@]1(COC(=O)NCC(C)C)C[C@@H]2C=C[C@H]1C2` (relative stereo) [Example 87, exo-2-(N-(2-methylpropyl)-carbamyloxymethyl)-norborn-5-en-2-yl methyl ketone], the ED (60 min sleep) (rats [1]; ip, intraperitoneal, rats) was 46.7 mg/kg, the “R.A. (relative activity)” value (rats [1]; rat, in vivo, ip) was 1.48 and the LD50 at 6 h (in vivo) was 482 mg/kg. It also gave a selectivity ratio (in vivo) of 10.3.
With `CC(=O)[C@]1(COC(=O)NC2CC2)C[C@@H]2C=C[C@H]1C2` (relative stereo) [Example 109, exo-2-(N-cyclopropylcarbamyloxymethyl)-norborn-5-en-2-yl methyl ketone] the ED (60 min sleep) (rats [1]; ip, intraperitoneal, rats) was 27.2 mg/kg, the “R.A. (relative activity)” value (rats [1]; rat, in vivo, ip) was 2.55 and the LD50 at 6 h (in vivo) was 187 mg/kg. The selectivity ratio (in vivo) was 6.9.
For `CNC(=O)OC1OC(=O)C2C3C=CC(C3)C12` (stereo not shown) [4-oxa-5-(5-methylcarbamyloxy)-tricyclo[5,2,1,0^2,6]-dec-8-en-3-one], the “Analgesic properties (in words), prior art” value [2] is given as “exhibit analgesic properties”.
With `C#CC1(OC(N)=O)CCCCC1` [Ethinamate, 1-ethynyl-cyclohexyl carbamate, reference compound] the “R.A. (relative activity)” value (rats [1]; Ethinamate = 1.00, intraperitoneal, rats) was 1.00 and the ED (60 min sleep) (rats [1]; ip, intraperitoneal, rats) was 69.3 mg/kg.
In the case of `CCCNC(=O)OCC1(C(C)=O)CC=CCC1` (stereo not shown) [Example 52, 1-(N-propylcarbamyloxymethyl)-cyclohex-3-enyl methyl ketone], the ED (60 min sleep) (rats [1]; ip, intraperitoneal, rats) is reported as 28.5 mg/kg, the “R.A. (relative activity)” value (rats [1]; rat, in vivo, ip) is reported as 2.43 and the LD50 at 6 h (in vivo) is reported as 215 mg/kg. For the same compound, the selectivity ratio (in vivo) was 7.5.
With `CCC(C)NC(=O)OC[C@@]1(C(C)=O)C[C@@H]2C=C[C@H]1C2` (stereo partly drawn) [Example 88, exo-2-(N-but-2-yl-carbamyloxymethyl)-norborn-5-en-2-yl methyl ketone] the ED (60 min sleep) (rats [1]; ip, intraperitoneal, rats) was 30.8 mg/kg, the “R.A. (relative activity)” value (rats [1]; rat, in vivo, ip) was 2.25 and the LD50 at 6 h (in vivo) was 150 mg/kg. It also gave a selectivity ratio (in vivo) of 4.9.
For `CC(=O)[C@]1(COC(=O)NC(C)C2CC2)C[C@@H]2C=C[C@H]1C2` (stereo partly drawn) [Example 98, exo-2-[N-(1-cyclopropylethyl)-carbamyloxymethyl]-norborn-5-en-2-yl methyl ketone], the ED (60 min sleep) (rats [1]; ip, intraperitoneal, rats) was 30.3 mg/kg, the “R.A. (relative activity)” value (rats [1]; rat, in vivo, ip) was 2.29 and the Mortality rate (rats [3]) was 0/10. For the same compound, the LD50 at 6 h (in vivo) was ≥ 681 mg/kg and the selectivity ratio (in vivo) was ≥ 22.5.
